# Structures can show the parent of a compound that is named as a salt.
# How the values were obtained:
# human mGlu2 receptor = human mGlu2 receptor (Homo sapiens, UniProt Q14416); assay: [35S]GTPγS binding assay, mGluR2 negative allosteric modulation (membranes from CHO cells transfected with human mGlu2 receptor, glutamate ~EC80 60 μM); details: for IC50: GTPγS - hmGluR2 anGT pIC50, membranes with human mGlu2 receptor, glutamate ~EC80 (60 μM), pIC50 = -log IC50 (M); for Emax: read-out: GTPγS - hmGluR2 anGT Emax, relative maximal effect: maximal % inhibition relative to the control glutamate response;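 for all read-outs here: membranes preincubated 30 min at 30 °C with compound plus glutamate, then [35S]GTPγS (0.1 nM) incorporation measured over another 30 min at 30 °C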
# Chain of human mGlu2 receptor (Q14416 19-872): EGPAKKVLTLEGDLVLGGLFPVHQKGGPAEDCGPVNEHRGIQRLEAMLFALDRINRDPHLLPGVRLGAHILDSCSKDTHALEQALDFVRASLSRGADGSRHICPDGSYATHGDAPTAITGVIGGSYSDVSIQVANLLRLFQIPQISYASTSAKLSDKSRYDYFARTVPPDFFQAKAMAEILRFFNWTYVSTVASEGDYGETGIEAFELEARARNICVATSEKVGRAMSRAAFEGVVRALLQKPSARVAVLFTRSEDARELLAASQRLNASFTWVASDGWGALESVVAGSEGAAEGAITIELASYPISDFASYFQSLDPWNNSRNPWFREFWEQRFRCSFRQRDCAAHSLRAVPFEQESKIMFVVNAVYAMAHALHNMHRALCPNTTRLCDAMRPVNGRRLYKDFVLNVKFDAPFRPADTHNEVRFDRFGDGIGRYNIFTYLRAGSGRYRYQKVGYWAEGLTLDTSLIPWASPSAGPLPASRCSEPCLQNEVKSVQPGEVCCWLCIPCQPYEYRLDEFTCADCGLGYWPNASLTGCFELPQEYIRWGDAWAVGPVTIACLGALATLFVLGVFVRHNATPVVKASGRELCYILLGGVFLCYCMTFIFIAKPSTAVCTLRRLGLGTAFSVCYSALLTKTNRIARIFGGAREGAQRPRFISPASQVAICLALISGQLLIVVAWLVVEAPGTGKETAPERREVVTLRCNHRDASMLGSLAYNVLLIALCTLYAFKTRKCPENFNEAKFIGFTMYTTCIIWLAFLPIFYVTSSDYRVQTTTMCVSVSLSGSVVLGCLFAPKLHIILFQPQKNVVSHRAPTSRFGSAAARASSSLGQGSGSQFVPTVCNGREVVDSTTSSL
# Protocol: The [^35S]GTPγS binding assay is a functional membrane-based assay used to study G-protein coupled receptor (GPCR) function whereby incorporation of a non-hydrolysable form of GTP, [^35S]GTPγS (guanosine 5′-triphosphate, labelled with gamma-emitting ^35S), is measured. […] Here we describe the use of the [^35S]GTPγS binding assay using membranes from cells transfected with the human mGlu2 receptor and adapted from Schaffhauser et al. (Molecular Pharmacology, 2003, 4:798-810) for the detection of the negative allosteric modulation (NAM) properties of the compounds of this invention.
# CHO-cells were cultured to pre-confluence and stimulated with 5 mM butyrate for 24 h. Cells were then collected by scraping in PBS and cell suspension was centrifuged (10 min at 4000 RPM in benchtop centrifuge). Supernatant was discarded and pellet gently resuspended in 50 mM Tris-HCl, pH 7.4 by mixing with an Ultra Turrax homogenizer. The suspension was centrifuged at 12,400 RPM (Sorvall F14S-6x250Y) for 10 minutes and the supernatant discarded. The pellet was homogenized in 5 mM Tris-HCl, pH 7.4 using an Ultra Turrax homogenizer and centrifuged again (13,000 RPM, 20 min, 4° C.). The final pellet was resuspended in 50 mM Tris-HCl, pH 7.4 and stored at −80° C. in appropriate aliquots before use. Protein concentration was determined by the Bradford method (Bio-Rad, USA) with bovine serum albumin as standard.
# Measurement of mGluR2 negative allosteric modulatory activity of test compounds was performed as follows. Test compounds and glutamate were diluted in assay buffer containing 10 mM HEPES acid, 10 mM HEPES salt, pH 7.4, 100 mM NaCl, 3 mM MgCl2 and 10 μM GDP. Human mGlu2 receptor-containing membranes were thawed on ice and diluted in assay buffer supplemented with 18 μg/ml saponin. Membranes were pre-incubated with compound together with a predefined (˜EC80) concentration of glutamate (60 μM) for 30 min at 30° C. After addition of [^35S]GTPγS (f.c. 0.1 nM), assay mixtures were shaken briefly and further incubated to allow [^35S]GTPγS incorporation on activation (30 minutes, 30° C.). Final assay mixtures contained 7 μg of membrane protein in 10 mM HEPES acid, 10 mM HEPES salt, pH 7.4, 100 mM NaCl, 3 mM MgCl2, 10 μM GDP and 10 μg/ml saponin. Total reaction volume was 200 μl. Reactions were terminated by rapid filtration through Unifilter-96 GF/B plates (Perkin Elmer, Massachusetts, USA) using a 96-well filtermate universal harvester. Filters were washed 6 times with ice-cold 10 mM NaH2PO4/10 mM Na2HPO4, pH 7.4. Filters were then air-dried, and 30 μl of liquid scintillation cocktail (Microscint-O) was added to each well. Membrane-bound radioactivity was counted in a Topcount.
# Data were calculated as % of the control glutamate response, defined as the response that is generated upon addition of an EC80-equivalent concentration of glutamate.
Compound,melting point,IC50 (human mGlu2 receptor),Emax (human mGlu2 receptor)
C[C@H]1CN(c2ccc(C(F)(F)F)cc2)C(=O)c2c(C(=O)Nc3cncc(F)c3)cnn21 (as salt: HCl) [13a],146.4 °C,–,–
"CC(NC(=O)c1cnn2c1C(=O)N(c1ccc(C(F)(F)F)cc1)C[C@@H]2C)C1CC1 (single isomer, unassigned) [compound 61]",186.7 °C,7.08e-08 M,104%
C[C@H]1CN(c2ccc(C(F)(F)F)cc2)C(=O)c2c(C(=O)Nc3cccc(S(C)(=O)=O)c3)cnn21 [compound 2],217.7 °C,1.7e-09 M,103%
C[C@H]1CN(c2ccc(C(F)(F)F)cc2)C(=O)c2c(C(=O)Nc3ccc(S(C)(=O)=O)cc3)cnn21 [compound 6],198.2 °C,3.09e-09 M,107%
Cc1ncccc1NC(=O)c1cnn2c1C(=O)N(c1ccc(C(F)(F)F)cc1)C[C@@H]2C [compound 10],171.6 °C,2e-08 M,113%
COc1cccnc1NC(=O)c1cnn2c1C(=O)N(c1ccc(C(F)(F)F)cc1)C[C@@H]2C [compound 11],164.7 °C,2.4e-07 M,109%
COc1cnccc1NC(=O)c1cnn2c1C(=O)N(c1ccc(C(F)(F)F)cc1)C[C@@H]2C [compound 16],200.8 °C,1.38e-08 M,115%
Cc1cncc(NC(=O)c2cnn3c2C(=O)N(c2ccc(C(F)(F)F)c(F)c2)C[C@@H]3C)c1 [compound 22],246.7 °C,3.55e-09 M,109%
C[C@H]1CN(c2ccc(C(F)(F)F)c(F)c2)C(=O)c2c(C(=O)Nc3cncc(F)c3)cnn21 [compound 24],204 °C,3.24e-09 M,107%
COCc1cc(N2C[C@H](C)n3ncc(C(=O)Nc4ccccn4)c3C2=O)ccc1C(F)(F)F [compound 31],160.4 °C,2.29e-08 M,109%
COc1cncc(NC(=O)c2cnn3c2C(=O)N(c2ccc(C(F)(F)F)c(OC)c2)C[C@@H]3C)c1 [compound 34],191.5 °C,1.05e-08 M,107%
C[C@H]1CN(c2ccc(C(F)(F)F)c(Cl)c2)C(=O)c2c(C(=O)Nc3cncc(F)c3)cnn21 [compound 50],168.1 °C,1.74e-09 M,108%
COc1cncc(NC(=O)c2cnn3c2C(=O)N(c2ccc(C(F)(F)F)c(Cl)c2)C[C@@H]3C)c1 [compound 51],214.9 °C,1.41e-09 M,113%
C[C@H]1CN(c2ccc(C(F)(F)F)c(CF)c2)C(=O)c2c(C(=O)Nc3ccncc3)cnn21 [compound 52],197.4 °C,2.57e-09 M,118%
Cc1cc(NC(=O)c2cnn3c2C(=O)N(c2ccc(C(F)(F)F)c(CF)c2)C[C@@H]3C)ccn1 [compound 54],141.3 °C,5.25e-09 M,118%
C[C@H]1CN(c2ccc(C(F)(F)F)cc2)C(=O)c2c(C(=O)NCC3CCC3)cnn21 [compound 58],204.6 °C,1.82e-08 M,113%
C[C@H]1CN(c2ccc(C(F)(F)F)cc2)C(=O)c2c(C(=O)NCC3CCCC3)cnn21 [compound 59],159.8 °C,3.55e-08 M,103%
C[C@H]1CN(c2ccc(C(F)(F)F)cc2)C(=O)c2c(C(=O)NCC3CC3)cnn21 [compound 60],161.4 °C,4.37e-08 M,103%

Compound,melting point,IC50 (human mGlu2 receptor),Emax (human mGlu2 receptor)
C[C@H]1CN(c2ccc(C(F)(F)F)cc2)C(=O)c2c(C(=O)NCC3CCCO3)cnn21 (stereo partly drawn) [compound 62],231.4 °C,7.76e-08 M,104%
Cc1cc(CNC(=O)c2cnn3c2C(=O)N(c2ccc(C(F)(F)F)cc2)C[C@@H]3C)ccn1 [compound 63],148.8 °C,1.17e-07 M,99%
C[C@H]1CN(c2ccc(C(F)(F)F)cc2)C(=O)c2c(C(=O)NCC3CCOC3)cnn21 (stereo partly drawn) [compound 64],68.3 °C,1.7e-07 M,107%
C[C@H]1CN(c2ccc(C(F)(F)F)cc2)C(=O)c2c(C(=O)NC3CCCCC3)cnn21 [compound 65],209.8 °C,1.78e-07 M,107%
C[C@H]1CN(c2ccc(C(F)(F)F)cc2)C(=O)c2c(C(=O)NCC3CCOCC3)cnn21 [compound 70],128.8 °C,8.13e-07 M,106%
C[C@H]1CN(c2ccc(C(F)(F)F)cc2)C(=O)c2c(C(=O)NC3CCC3)cnn21 [compound 71],208.2 °C,7.08e-08 M,111%
C[C@H]1CN(c2ccc(C(F)(F)F)cc2)C(=O)c2c(C(=O)NC3COC3)cnn21 [compound 72],108.6 °C,2.75e-07 M,111%
"C[C@H]1CN(c2ccc(C(F)(F)F)cc2)C(=O)c2c(C(N)=O)cnn21 [compound 73, (7S)-7-methyl-4-oxo-5-[4-(trifluoromethyl)phenyl]-6,7-dihydropyrazolo [1,5-a]pyrazine-3-carboxamide]",275 °C,1.35e-06 M,95%
Cc1cc(N2C[C@H](C)n3ncc(C(=O)Nc4cncc(F)c4C)c3C2=O)ccc1Cl [compound 79],182 °C,1.66e-09 M,112%
"COc1nc(N2C[C@H](C)n3ncc(C(=O)Nc4ccccc4)c3C2=O)ccc1Cl [compound 83, (7S)-5-(5-Chloro-6-methoxy-2-pyridyl)-7-methyl-4-oxo-N-phenyl-6,7-dihydropyrazolo[1,5-a]pyrazine-3-carboxamide]",203.08 °C,1.55e-08 M,111%
Cc1cc(NC(=O)c2cnn3c2C(=O)N(c2ccc(C(F)(F)F)c(C#N)c2)C[C@@H]3C)ccn1 [compound 91],224.9 °C,1.86e-08 M,103%
Cc1cc(NC(=O)c2cnn3c2C(=O)N(c2ccccc2)C[C@@H]3C)ccn1 [compound 97],94.5 °C,1.48e-07 M,114%
Cc1ncc(NC(=O)c2cnn3c2C(=O)N(c2ccc(C(F)(F)F)cc2)C[C@@H]3C)cn1 [compound 99],223.3 °C,4.57e-08 M,100%
C[C@H]1CN(c2ccc(C(F)(F)F)cc2)C(=O)c2c(C(=O)Nc3ncccn3)cnn21 [compound 103],248.3 °C,1.02e-07 M,104%
C[C@H]1CN(c2ccc(C(F)(F)F)c(F)c2)C(=O)c2c(C(=O)Nc3cnccn3)cnn21 [compound 113],181.5 °C,3.16e-09 M,107%
COc1cc(N2C[C@H](C)n3ncc(C(=O)Nc4cnccn4)c3C2=O)ccc1C(F)(F)F [compound 115],193.3 °C,6.92e-09 M,108%
COCC1CN(c2ccc(C(F)(F)F)c(Cl)c2)C(=O)c2c(C(=O)Nc3cccnc3)cnn21 (stereo not drawn) [compound 164],–,1.91e-09 M,108%
